Results from patent publication US6274715A, “Tricyclic erythromycin derivatives” (priority 1997, dated 2001).
≈ marks a conversion by molar mass, not a printed value.

Assays:
Type in all cases: cell-based
[1] = test system: MYCOBACTERIUM SMEGMATIS ATCC 114; experiment: In vitro antibacterial activity, MIC, BHI agar dilution; conditions: M. smegmatis ATCC 114, unit assumed
[2] = test system: PSEUDOMONAS AERUGINOSA DPHD-2862; experiment: as above; conditions: P. aeruginosa DPHD-2862, unit assumed
[3] = test system: PSEUDOMONAS AERUGINOSA 5007; experiment: as above; conditions: P. aeruginosa 5007, unit assumed
[4] = test system: STREPTOCOCCUS PYOGENES PIU 2548; experiment: as above; conditions: S. pyogenes PIU 2548, unit assumed
[5] = test system: PSEUDOMONAS CEPACIA 296I; experiment: as above; conditions: P. cepacia 296I, unit assumed
[6] = test system: ESCHERICHIA COLI DC-2; experiment: as above; conditions: E. coli DC-2, unit assumed
[7] = test system: STREPTOCOCCUS BOVIS A-5169; experiment: as above; conditions: S. bovis A-5169, unit assumed
[8] = test system: CANDIDA ALBICANS CCH 442; experiment: as above; conditions: C. albicans CCH 442, unit assumed
[9] = test system: ESCHERICHIA COLI KNK 437; conditions: E. coli KNK 437; BHI agar; unit assumed
[10] = test system: STAPHYLOCOCCUS AUREUS CMX 553; experiment: In vitro antibacterial activity, MIC, BHI agar dilution; conditions: S. aureus CMX 553, unit assumed
[11] = test system: STAPHYLOCOCCUS AUREUS ATCC 6538P; experiment: as above; conditions: S. aureus ATCC 6538P, 35-37° C., 20 to 24 hours, unit assumed
[12] = test system: ACINETOBACTER CALCOACETICUS CMX 669; experiment: as above; conditions: A. calcoaceticus CMX 669, unit assumed
[13] = test system: EN[…] ATCC 8043; experiment: as above; conditions: E. faecium ATCC 8043, unit assumed
In short: (§1)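 Agar dilution in BHI: plates inoculated with 1:100 dilutions of organisms (1:10 for Micrococcus and Streptococcus), incubated 20-24 h at 35-37° C, then inspected for the lowest inhibitory concentration against a drug-free growth control.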

[14] = test system: STR[…] 508; experiment: as above; conditions: S. agalactiae CMX 508, unit assumed
In short: as §1

[15] = test system: M[…] ATCC 9341; experiment: as above; conditions: M. luteus ATCC 9341, unit assumed
In short: as §1

[16] = test system: M[…] ATCC 4698; experiment: as above; conditions: M. luteus ATCC 4698, unit assumed
In short: as §1

[17] = test system: STAPHYLOCOCCUS AUREUS CMX 642A; experiment: as above; conditions: S. aureus CMX 642A, unit assumed
[18] = test system: ESCHERICHIA COLI SS; experiment: as above; conditions: E. coli SS, unit assumed
[19] = test system: KLEBSIELLA PNEUMONIAE ATCC 8045; experiment: as above; conditions: K. pneumoniae ATCC 8045, unit assumed
[20] = test system: PSEUDOMONAS AERUGINOSA K799/61; experiment: as above; conditions: P. aeruginosa K799/61, unit assumed
[21] = test system: PROVIDENCIA STUARTII CMX 640; conditions: P. stuartii CMX 640; BHI agar; unit assumed
[22] = test system: ESCHERICHIA COLI JUHL; conditions: E. coli JUHL; BHI agar; unit assumed
[23] = test system: PSEUDOMONAS AERUGINOSA K799/WT; experiment: In vitro antibacterial activity, MIC, BHI agar dilution; conditions: P. aeruginosa K799/WT, unit assumed
[24] = test system: ESCHERICHIA COLI H560; experiment: as above; conditions: E. coli H560, unit assumed
[25] = test system: STAPHYLOCOCCUS AUREUS A-5278; experiment: as above; conditions: S. aureus A-5278, unit assumed
[26] = test system: PSEUDOMONAS AERUGINOSA DPHD-5263; experiment: as above; conditions: P. aeruginosa DPHD-5263, unit assumed
[27] = test system: STREPTOCOCCUS PYOGENES 930; experiment: as above; conditions: S. pyogenes 930, unit assumed
[28] = test system: STAPHYLOCOCCUS AUREUS NCTC10649M; experiment: as above; conditions: S. aureus NCTC10649M, unit assumed
[29] = test system: PSEUDOMONAS AERUGINOSA BMH10; experiment: as above; conditions: P. aeruginosa BMH10, unit assumed
[30] = test system: STAPHYLOCOCCUS AUREUS 1775; experiment: as above; conditions: S. aureus 1775, unit assumed
[31] = test system: STAPHYLOCOCCUS AUREUS A5177; experiment: as above; conditions: S. aureus A5177, unit assumed
[32] = test system: ENTEROBACTER AEROGENES ATCC 13048; experiment: as above; conditions: E. aerogenes ATCC 13048, unit assumed
[33] = test system: STAPHYLOCOCCUS EPIDERMIDIS 3519; conditions: S. epidermidis 3519; BHI agar; unit assumed
[34] = test system: STREPTOCOCCUS PYOGENES EES61; experiment: In vitro antibacterial activity, MIC, BHI agar dilution; conditions: S. pyogenes EES61, unit assumed

SMILES	MIC [1] [µg/mL]	MIC [2] [µg/mL]	MIC [3] [µg/mL]	MIC [4] [µg/mL]	MIC [5] [µg/mL]	MIC [6] [µg/mL]	MIC [7] [µg/mL]	MIC [8] [µg/mL]	MIC [9] [µg/mL]	MIC [10] [µg/mL]	MIC [11] [µg/mL]	MIC [12] [µg/mL]	MIC [13] [µg/mL]	MIC [14] [µg/mL]	MIC [15] [µg/mL]	MIC [16] [µg/mL]	MIC [17] [µg/mL]	MIC [18] [µg/mL]	MIC [19] [µg/mL]	MIC [20] [µg/mL]	further results
CC[C@H]1OC(=O)[C@H](C)C(=O)[C@H](C)[C@@H](O[C@@H]2O[C@H](C)C[C@H](N(C)C)[C@H]2O)[C@](C)(OC)C[C@@H](C)C2=NC[C@@H](COCc3ccccc3)N3C(=O)O[C@@]1(C)[C@H]3[C@H]2C [Example 37]	0.39 (≈ 0.515 µM)	> 100	> 100	0.39 (≈ 0.515 µM)	100 (≈ 132 µM)	25 (≈ 33 µM)	≤ 0.005	> 100	25 (≈ 33 µM)	0.1 (≈ 0.132 µM)	0.1 (≈ 0.132 µM)	25 (≈ 33 µM)	0.05 (≈ 0.066 µM)	0.02 (≈ 0.0264 µM)	0.01 (≈ 0.0132 µM)	0.2 (≈ 0.264 µM)	0.1 (≈ 0.132 µM)	0.39 (≈ 0.515 µM)	50 (≈ 66 µM)	0.78 (≈ 1.03 µM)	MIC [21]: > 100 µg/mL; MIC [22]: 50 µg/mL (≈ 66 µM); MIC [23]: > 100 µg/mL; MIC [24]: 25 µg/mL (≈ 33 µM); MIC [25]: > 100 µg/mL; MIC [26]: > 100 µg/mL; MIC [27]: 100 µg/mL (≈ 132 µM); MIC [28]: 0.1 µg/mL (≈ 0.132 µM); MIC [29]: 50 µg/mL (≈ 66 µM); MIC [30]: > 100 µg/mL; MIC [31]: 0.1 µg/mL (≈ 0.132 µM); MIC [32]: 50 µg/mL (≈ 66 µM); MIC [33]: 0.1 µg/mL (≈ 0.132 µM); MIC [34]: ≤ 0.005 µg/mL
CC[C@H]1OC(=O)[C@H](C)C(=O)[C@H](C)[C@@H](O[C@@H]2O[C@H](C)C[C@H](N(C)C)[C@H]2O)[C@](C)(OC)C[C@@H](C)C2=N[C@H](CN(C)Cc3ccccc3)CN3C(=O)O[C@@]1(C)[C@H]3[C@H]2C [Example 58]	3.1 (≈ 4.02 µM)	> 100	> 100	0.39 (≈ 0.506 µM)	> 100	> 100	0.01 (≈ 0.013 µM)	> 100	> 100	0.78 (≈ 1.01 µM)	0.78 (≈ 1.01 µM)	> 100	0.2 (≈ 0.259 µM)	0.02 (≈ 0.0259 µM)	0.1 (≈ 0.13 µM)	0.39 (≈ 0.506 µM)	0.78 (≈ 1.01 µM)	0.39 (≈ 0.506 µM)	> 100	3.1 (≈ 4.02 µM)	MIC [21]: > 100 µg/mL; MIC [22]: > 100 µg/mL; MIC [23]: > 100 µg/mL; MIC [24]: 50 µg/mL (≈ 64.9 µM); MIC [25]: > 100 µg/mL; MIC [26]: > 100 µg/mL; MIC [27]: > 100 µg/mL; MIC [28]: 0.78 µg/mL (≈ 1.01 µM); MIC [29]: > 100 µg/mL; MIC [30]: > 100 µg/mL; MIC [31]: 0.78 µg/mL (≈ 1.01 µM); MIC [32]: > 100 µg/mL; MIC [33]: 0.78 µg/mL (≈ 1.01 µM); MIC [34]: 0.01 µg/mL (≈ 0.013 µM)
